{
  "source": "patent US11167007B2",
  "about": "“FOXM1 modulators and uses thereof” (City of Hope, priority 2016, dated 2021)",
  "key": {"FOXM1/β-catenin": {"molecular_target": "T1, FOXM1/β-catenin (Mus musculus, UniProt O08696)", "T1 construct": "endogenous in cells; host or cells: GT1-7", "T1 sequence (O08696 1-760)": "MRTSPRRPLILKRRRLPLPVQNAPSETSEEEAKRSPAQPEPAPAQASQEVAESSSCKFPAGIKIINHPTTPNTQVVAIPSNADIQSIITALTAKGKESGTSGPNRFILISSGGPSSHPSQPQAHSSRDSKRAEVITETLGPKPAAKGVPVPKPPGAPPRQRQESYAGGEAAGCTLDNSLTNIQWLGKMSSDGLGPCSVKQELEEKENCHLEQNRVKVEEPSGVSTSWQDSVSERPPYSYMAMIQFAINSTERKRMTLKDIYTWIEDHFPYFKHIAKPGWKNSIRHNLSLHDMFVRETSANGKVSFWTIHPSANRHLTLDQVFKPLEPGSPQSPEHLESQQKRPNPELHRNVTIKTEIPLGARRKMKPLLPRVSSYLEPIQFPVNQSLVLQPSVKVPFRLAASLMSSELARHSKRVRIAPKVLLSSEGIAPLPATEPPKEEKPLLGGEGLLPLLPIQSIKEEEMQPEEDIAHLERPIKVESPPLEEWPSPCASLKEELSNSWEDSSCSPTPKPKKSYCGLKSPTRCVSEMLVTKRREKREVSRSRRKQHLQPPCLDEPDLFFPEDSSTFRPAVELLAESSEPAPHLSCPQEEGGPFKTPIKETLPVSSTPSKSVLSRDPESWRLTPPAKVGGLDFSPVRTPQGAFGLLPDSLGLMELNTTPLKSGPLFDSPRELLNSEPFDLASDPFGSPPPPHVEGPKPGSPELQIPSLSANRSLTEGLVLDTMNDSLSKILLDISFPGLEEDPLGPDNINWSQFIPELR", "assay": "Co-immunoprecipitation of β-catenin from GT1-7 cell lysates, Western blot for FOXM1", "type": "cell-based, murine", "conditions": "FIG. 3E", "experimental": "Immunoprecipitation (IP). The co-IP assay was performed as described by Zhang et al, Cancer Cell, 20(4):427-42 (2011). In brief, cells were lysed on ice for 20 minutes in co-IP buffer containing 10 mmol/L Hepes (pH8), 300 mmol/L NaCL, 0.1 mmol/L EDTA, 20% glycerol, 0.2% NP-40 and protease inhibitor (Roche Diagnostics). Lysate was centrifuged at 10000 g for 10 minutes at 4° C. Lysate was incubated with primary antibody (β-catenin: rabbit, 9562, Cell Signaling Technology) overnight at 4° C. followed by incubation with 30 uL of Protein A/G beads for 2 hours at 4° C. Collected protein complexes were washed and analyzed by Western blotting.\nWestern Blot. Cell lysates was separated on a 6% SDS page gel and transferred to a nitrocellulose membrane. The membrane was blocked for one hour in 5% skim milk dissolved in TBS-T and probed with the following antibodies ([…]): FoxM1 (rabbit, GeneTex), AR: 441 (mouse, Santa Cruz Biotechnology), β-catenin (rabbit 9562, Cell Signaling Technology), p84 (mouse, GeneTex) and actin (mouse, Santa Cruz Biotechnology). Horse radish peroxidase linked secondary antibodies were used along with ECL reagents for visualization. Western blots were quantified using Quantity One analysis software (BioRad).\nCo-immunoprecipitation confirmed a direct interaction between β-catenin and FOXM1 as well as between β-catenin and AR (FIG. 3E). […]"}, "AR activity in LA muscle": {"test_system": "AR activity in LA muscle", "assay": "RT-qPCR of androgen-regulated transcripts in LA muscle", "type": "in vivo, rat", "conditions": "rats, four genes, FIG. 5H", "experimental": "Animals and Drugs. This study was carried out in strict accordance with the recommendations in the Guide for the Care and Use of Laboratory Animals of the National Institutes of Health. All experiments were performed under the IUCAC approval of City of Hope. Animals were purchased from Jackson Laboratory (Bar Harbor, Main). For the pilot pharmacokinetic experiment, nine male Sprague Dawley rats (n=3) were administered 1, 10, or 100 mg/kg intraperitoneal injections thrice per week for four weeks. One hour following the final dose, blood and spinal fluid were collected and analyzed by mass spectrometry. For the efficacy experiment, rats were divided into 3 groups (n=7) as follows: intact, castrated, and thiostrepton. […] Following a treatment period of 7 days, rats were euthanized and organs harvested, weighed and processed for quantitative RT-PCR.\nqRT-PCR. The quantitative RT-PCR method has been described by Jones et al, ACS Chem Biol, 3(7):412-8 (2008). […] Differences between experimental (x) and control (y) samples were normalized to RPL19 transcript levels (androgen unresponsive) and determined with the following calculation: (2^(Ctsgene1-Ctygene1))/(2^(CtxRPL19-CtyRPL19)) One-way analysis of variance was applied to determine statistical significant among groups, where p<0.05 was considered significant. […]"}},
  "data": [
    {"smiles": "C=C(NC(=O)C(=C)NC(=O)c1csc(C2=N[C@@H]3c4csc(n4)[C@H]4NC(=O)c5csc(n5)[C@H]([C@](C)(O)[C@@H](C)O)NC(=O)[C@H]5CSC(=N5)/C(=C/C)NC(=O)[C@H]([C@@H](C)O)NC(=O)c5csc(n5)[C@]3(CC2)NC(=O)[C@H](C)NC(=O)C(=C)NC(=O)[C@H](C)NC(=O)[C@H]([C@@H](C)CC)N[C@@H]2C=Cc3c([C@H](C)O)cc(nc3[C@H]2O)C(=O)O[C@@H]4C)n1)C(N)=O", "note": "[thiostrepton]", "values": [
      {"measurement": "amount of FOXM1 pulled down with β-catenin", "setting": "FOXM1/β-catenin", "result": "reduced"},
      {"measurement": "androgen-dependent gene transcript levels in LA muscle", "setting": "AR activity in LA muscle", "result": "did not significantly affect"}
    ]}
  ]
}
